Laboratory results as given in the supplement of paper PMC10307832.

Tests used:
Test in all cases: relative viability (nuclei count vs DMSO), 5 days (fraction); higher = more cells survive
[1] = compound: C1CCC(CC1)N(CCNCCC2=C3C(=C(C=C2)O)NC(=O)CO3)C(=O)CCNCCC4=CC(=C(C=C4)Cl)Cl [AZ505] + N=C(N)NC(=N)NCCc1ccccc1 [Phenformin] (partner 250 µM)
Outline: (§1)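 One day after seeding in 1536-well plates, lung cancer cell lines were dosed by pin tool. Dosing was either single-drug or a fixed anchor-drug dose plus five library-drug doses (not always all listed) in √10 steps. After 5 days, nuclei were stained in one fix-and-stain step and counted on 4× images, and relative viability is the nuclei count of treated wells over that of vehicle wells, given as the median of duplicate plates.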

[2] = compound: C1CCC(CC1)N(CCNCCC2=C3C(=C(C=C2)O)NC(=O)CO3)C(=O)CCNCCC4=CC(=C(C=C4)Cl)Cl [AZ505] + CC(=O)Nc1cccc(-n2c(=O)n(C3CC3)c(=O)c3c(Nc4ccc(I)cc4F)n(C)c(=O)c(C)c32)c1 [Trametinib] (partner 0.02 µM)
Outline: as §1

[3] = compound: C1CCC(CC1)N(CCNCCC2=C3C(=C(C=C2)O)NC(=O)CO3)C(=O)CCNCCC4=CC(=C(C=C4)Cl)Cl [AZ505] + Nc1ncn([C@H]2C[C@H](O)[C@@H](CO)O2)c(=O)n1 [Decitabine] (partner 2 µM)
Outline: as §1

[4] = compound: Cn1c(=O)n(-c2ccc(C(C)(C)C#N)cc2)c2c3cc(-c4cnc5ccccc5c4)ccc3ncc21 [Dactolisib] + CC1(C)CCC(c2ccc(Cl)cc2)=C(CN2CCN(c3ccc(C(=O)NS(=O)(=O)c4ccc(N[C@H](CCN5CCOCC5)CSc5ccccc5)c(S(=O)(=O)C(F)(F)F)c4)cc3)CC2)C1 [Navitoclax] (partner 0.5 µM)
Outline: as §1

Cell Line	relative viability ([1]; first compound 0.08 µM)	relative viability ([1]; first compound 0.253 µM)	relative viability ([1]; first compound 0.8 µM)	relative viability ([1]; first compound 2.53 µM)	relative viability ([1]; first compound 8 µM)	relative viability ([2]; first compound 0.08 µM)	relative viability ([2]; first compound 0.253 µM)	relative viability ([2]; first compound 0.8 µM)	relative viability ([2]; first compound 2.53 µM)	relative viability ([2]; first compound 8 µM)	relative viability ([3]; first compound 0.08 µM)	relative viability ([3]; first compound 0.253 µM)	relative viability ([3]; first compound 0.8 µM)	relative viability ([3]; first compound 2.53 µM)	relative viability ([3]; first compound 8 µM)	relative viability ([4]; first compound 0.002 µM)	relative viability ([4]; first compound 0.006325 µM)	relative viability ([4]; first compound 0.02 µM)	relative viability ([4]; first compound 0.06325 µM)	relative viability ([4]; first compound 0.2 µM)
NCI-H2342	0.573	0.559	0.733	0.697	0.677	0.668	0.789	1.01	0.752	1.01	0.792	0.759	0.728	0.734	0.841	–	–	–	–	–
HCC-15	0.411	0.476	0.474	0.415	0.446	0.278	0.391	0.341	0.366	0.372	0.566	0.627	0.587	0.705	0.678	0.767	0.646	0.673	0.475	0.322
A-427	0.309	0.255	0.327	0.395	0.298	0.705	0.776	0.631	0.738	0.743	0.58	0.551	0.488	0.525	0.574	0.953	0.951	0.915	0.393	0.349
NCI-H2228	0.291	0.222	0.279	0.392	0.224	0.311	0.374	0.441	0.49	0.429	–	–	–	–	–	0.875	0.699	0.551	0.241	0.215
NCI-H1734	0.393	0.351	0.402	0.406	0.425	0.65	0.647	0.652	0.675	0.691	0.52	0.501	0.45	0.541	0.506	0.839	0.647	0.743	0.275	0.234
SK-LU-1	0.353	0.345	0.33	0.394	0.379	0.366	0.377	0.401	0.383	0.407	0.518	0.568	0.565	0.406	0.604	1.14	0.627	0.707	0.673	0.319
PC-14	0.519	0.328	0.573	0.482	0.668	0.711	0.884	0.76	0.747	0.786	0.2	0.261	0.272	0.192	0.258	1.09	1.06	1.06	0.329	0.432
NCI-H1915	0.339	0.38	0.345	0.375	0.354	0.294	0.303	0.236	0.266	0.301	0.278	0.303	0.29	0.27	0.279	0.783	0.759	0.773	0.781	0.484
NCI-H1666	0.56	0.599	0.587	0.557	0.483	0.878	0.873	0.83	0.838	0.781	0.69	0.667	0.752	0.659	0.694	1.3	0.673	0.927	0.667	0.31
HCC-366	0.577	0.632	0.572	0.56	0.582	0.288	0.331	0.281	0.289	0.332	0.342	0.344	0.316	0.316	0.341	1	0.961	1.07	0.67	0.498
SK-MES-1	0.485	0.618	0.643	0.67	0.601	0.513	0.531	0.532	0.508	0.584	0.369	0.409	0.392	0.412	0.439	1.34	1.17	1.1	0.574	0.55
NCI-H661	0.285	0.261	0.288	0.328	0.296	0.603	0.596	0.537	0.577	0.541	0.54	0.575	0.522	0.575	0.582	–	–	–	–	–
PC-3 [JPC-3]	0.423	0.446	0.433	0.484	0.422	0.596	–	0.694	0.704	0.693	0.849	–	0.861	0.79	0.79	0.796	0.787	0.879	0.742	0.509
NCI-H1623	0.54	0.504	0.621	0.509	0.629	–	–	–	–	–	–	–	–	–	–	–	–	–	–	–
Calu-6	–	–	–	–	–	–	–	–	–	–	–	–	–	–	–	0.972	0.794	0.703	0.411	0.259
